In patent publication US20230295130A1, “COMPOUND USEFUL AS CDK7 KINASE INHIBITOR AND USE THEREOF” (TYK MEDICINES, INC., priority 2020, published 2023):

Columns and labels:
Test in all cases: Enzyme activity test, mobility shift assay (Table 1)
Type in all cases: biochemical
CDK9/Cyclin Tl = CDK9/Cyclin Tl (Homo sapiens (Human), UniProt P50750); conditions: 2 mM ATP; read-out: CDK9 kinase IC50
Description: (§1) The compound powder was dissolved in 100% DMSO to prepare a 10 mM storage solution. The storage solution was further diluted to 0.5 mM as the initial concentration, and continuously diluted 3 times to obtain 10 compound solutions with different concentrations. The compound and enzyme were pre-incubated for 0 minutes and 60 minutes, respectively, using duplicate detection.
(§2) was used as a positive control, and Mobility shift assay method was used to detect CDK kinase (such as CDK7, CDK9, CDK12 and CDK2) activity of the compounds.

CDK2/Cyclin El = CDK2/Cyclin El (Homo sapiens (Human), UniProt P24941); conditions: 2 mM ATP; read-out: CDK2 kinase IC50
Description: as §1, §2

[1] = biological target: CDK7/Cyclin H/MAT1 kinase (Homo sapiens (Human), UniProt P50613); conditions: 2 mM ATP; pre-incubated 0 and 60 minutes
Description: IC50 values of the compounds for CDK7 kinase were detected in Wuxi Biortus Biosciences Co. Ltd.
as §1, §2

[2] = biological target: CDK12 (aa686-1082)/Cyclin K (Homo sapiens (Human), UniProt Q9NYV4); conditions: 2 mM ATP; read-out: CDK12 kinase IC50
Description: as §1, with “detection. Compound Staurosporine having a structural formula of” for “detection.”
as §2

Sequence of CDK9/Cyclin Tl (P50750 whole entry): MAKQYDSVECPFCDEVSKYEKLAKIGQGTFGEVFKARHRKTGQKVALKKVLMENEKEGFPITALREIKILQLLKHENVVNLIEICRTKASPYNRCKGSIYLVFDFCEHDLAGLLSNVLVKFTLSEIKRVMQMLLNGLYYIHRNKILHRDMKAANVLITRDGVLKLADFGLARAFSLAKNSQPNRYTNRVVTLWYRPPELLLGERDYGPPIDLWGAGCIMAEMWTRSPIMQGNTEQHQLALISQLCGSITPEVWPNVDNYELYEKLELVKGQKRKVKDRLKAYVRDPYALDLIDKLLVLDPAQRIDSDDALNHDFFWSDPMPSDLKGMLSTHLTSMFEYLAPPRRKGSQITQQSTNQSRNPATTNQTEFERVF
Sequence of CDK9/Cyclin Tl (O60563 whole entry partner): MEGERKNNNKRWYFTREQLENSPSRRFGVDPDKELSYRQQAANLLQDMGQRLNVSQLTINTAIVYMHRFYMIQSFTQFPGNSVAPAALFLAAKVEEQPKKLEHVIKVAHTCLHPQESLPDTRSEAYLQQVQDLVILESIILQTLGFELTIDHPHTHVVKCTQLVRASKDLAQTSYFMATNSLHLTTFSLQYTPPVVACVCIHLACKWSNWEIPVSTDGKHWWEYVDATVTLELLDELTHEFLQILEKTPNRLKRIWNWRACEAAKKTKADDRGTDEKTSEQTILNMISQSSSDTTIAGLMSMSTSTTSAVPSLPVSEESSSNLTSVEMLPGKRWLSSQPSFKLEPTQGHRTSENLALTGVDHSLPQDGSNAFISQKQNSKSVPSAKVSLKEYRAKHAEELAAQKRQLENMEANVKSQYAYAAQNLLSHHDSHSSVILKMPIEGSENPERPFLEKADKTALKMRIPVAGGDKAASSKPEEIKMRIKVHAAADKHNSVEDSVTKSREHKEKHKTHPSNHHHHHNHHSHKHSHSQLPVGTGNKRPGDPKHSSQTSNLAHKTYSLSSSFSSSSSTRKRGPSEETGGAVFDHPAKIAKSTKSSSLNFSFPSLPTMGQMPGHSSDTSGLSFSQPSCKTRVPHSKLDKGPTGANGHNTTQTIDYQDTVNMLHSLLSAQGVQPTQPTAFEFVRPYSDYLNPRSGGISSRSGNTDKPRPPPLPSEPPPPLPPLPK
Sequence of CDK7/Cyclin H/MAT1 kinase (P50613 whole entry): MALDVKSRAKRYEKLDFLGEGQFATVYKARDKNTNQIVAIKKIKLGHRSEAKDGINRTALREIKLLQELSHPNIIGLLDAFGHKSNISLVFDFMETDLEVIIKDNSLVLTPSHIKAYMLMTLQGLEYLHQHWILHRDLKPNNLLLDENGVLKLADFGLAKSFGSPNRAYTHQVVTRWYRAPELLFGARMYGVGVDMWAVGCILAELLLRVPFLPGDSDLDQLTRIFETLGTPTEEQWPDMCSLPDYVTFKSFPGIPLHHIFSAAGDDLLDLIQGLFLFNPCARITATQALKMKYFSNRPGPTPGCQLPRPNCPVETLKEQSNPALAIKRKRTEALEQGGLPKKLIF
Sequence of CDK7/Cyclin H/MAT1 kinase (P51946 whole entry partner): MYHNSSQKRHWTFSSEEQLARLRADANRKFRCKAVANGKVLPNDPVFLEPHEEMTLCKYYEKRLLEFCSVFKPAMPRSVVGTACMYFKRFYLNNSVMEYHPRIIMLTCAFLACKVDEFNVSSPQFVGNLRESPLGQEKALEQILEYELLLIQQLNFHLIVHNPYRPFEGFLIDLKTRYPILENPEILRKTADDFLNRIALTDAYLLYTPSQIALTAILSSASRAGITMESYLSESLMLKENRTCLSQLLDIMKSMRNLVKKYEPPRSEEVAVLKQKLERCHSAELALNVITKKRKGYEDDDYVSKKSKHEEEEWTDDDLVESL
Sequence of CDK7/Cyclin H/MAT1 kinase (P51948 whole entry partner): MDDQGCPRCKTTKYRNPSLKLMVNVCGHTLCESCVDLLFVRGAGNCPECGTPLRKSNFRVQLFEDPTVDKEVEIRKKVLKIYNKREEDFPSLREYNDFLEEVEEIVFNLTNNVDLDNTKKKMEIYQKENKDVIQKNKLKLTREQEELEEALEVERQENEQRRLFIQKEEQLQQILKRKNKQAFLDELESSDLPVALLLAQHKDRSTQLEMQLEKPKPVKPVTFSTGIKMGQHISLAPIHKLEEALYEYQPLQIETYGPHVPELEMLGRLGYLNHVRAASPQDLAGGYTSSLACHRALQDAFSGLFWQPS
Sequence of CDK12 (aa686-1082)/Cyclin K (Q9NYV4 686-1082): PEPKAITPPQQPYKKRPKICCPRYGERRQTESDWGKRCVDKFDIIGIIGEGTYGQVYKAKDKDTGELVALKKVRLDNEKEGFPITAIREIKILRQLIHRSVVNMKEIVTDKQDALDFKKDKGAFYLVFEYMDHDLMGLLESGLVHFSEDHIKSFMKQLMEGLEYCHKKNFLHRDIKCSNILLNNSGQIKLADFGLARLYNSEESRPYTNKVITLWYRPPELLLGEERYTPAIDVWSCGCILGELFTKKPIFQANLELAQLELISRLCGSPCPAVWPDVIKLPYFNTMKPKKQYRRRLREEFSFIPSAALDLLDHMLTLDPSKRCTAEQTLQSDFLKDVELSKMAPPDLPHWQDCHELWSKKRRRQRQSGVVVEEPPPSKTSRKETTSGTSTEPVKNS
Sequence of CDK12 (aa686-1082)/Cyclin K (O75909 whole entry partner, the tested form may be a part): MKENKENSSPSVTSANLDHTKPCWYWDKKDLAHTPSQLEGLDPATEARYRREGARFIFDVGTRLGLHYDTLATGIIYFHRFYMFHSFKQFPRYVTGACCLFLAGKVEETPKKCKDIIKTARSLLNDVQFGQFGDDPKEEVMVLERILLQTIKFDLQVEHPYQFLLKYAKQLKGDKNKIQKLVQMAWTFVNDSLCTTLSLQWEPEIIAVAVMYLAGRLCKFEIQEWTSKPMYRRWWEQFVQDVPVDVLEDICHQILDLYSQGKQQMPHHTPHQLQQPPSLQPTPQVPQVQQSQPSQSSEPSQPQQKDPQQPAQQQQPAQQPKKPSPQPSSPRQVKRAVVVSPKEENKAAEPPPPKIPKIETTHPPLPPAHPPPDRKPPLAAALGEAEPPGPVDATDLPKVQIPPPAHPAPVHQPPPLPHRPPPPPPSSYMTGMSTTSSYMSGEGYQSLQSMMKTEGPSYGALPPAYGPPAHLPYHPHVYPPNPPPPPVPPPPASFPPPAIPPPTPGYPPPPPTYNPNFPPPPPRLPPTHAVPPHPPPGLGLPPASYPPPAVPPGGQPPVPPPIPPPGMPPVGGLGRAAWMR

| IC50 (CDK9/Cyclin Tl) | IC50 (CDK2/Cyclin El) | IC50 [1] | IC50 [2] | Compound |
| --- | --- | --- | --- | --- |
| > 500 nM | > 500 nM | < 50 nM | > 500 nM | COC(=O)Nc1ccc2c(-c3nc(N[C@H]4CCCNC4)ncc3C(F)(F)F)c[nH]c2c1C1COC1 [Example T-84] |
| > 500 nM | > 500 nM | < 50 nM | > 500 nM | COC(=O)Nc1ccc2c(-c3nc(N[C@H]4CCC(C)(C)NC4)ncc3Cl)c[nH]c2c1OCC(F)(F)F [Example T-85] |
| > 500 nM | > 500 nM | < 50 nM | > 500 nM | COC(=O)Nc1ccc2c(-c3nc(N[C@H]4CCC(C)(C)NC4)ncc3Cl)c[nH]c2c1CC(F)(F)F [Example T-86] |
| > 500 nM | > 500 nM | < 50 nM | > 500 nM | COC(=O)Nc1ccc2c(-c3nc(N[C@H]4CCCNC4)ncc3Cl)c[nH]c2c1C(F)(F)F [Example T-88] |
| > 500 nM | > 500 nM | < 50 nM | > 500 nM | COC(=O)Nc1ccc2c(-c3nc(N[C@H]4CCC(C)(C)NC4)ncc3Cl)c[nH]c2c1OC(F)(F)F [Example T-96] |
| > 500 nM | > 500 nM | < 50 nM | > 500 nM | COC(=O)Nc1ccc2c(-c3nc(N[C@H]4CCC5(CC5)NC4)ncc3C(F)(F)F)c[nH]c2c1C(F)(F)F [Example T-100] |
| > 500 nM | > 500 nM | < 50 nM | > 500 nM | COC(=O)N(C)c1ccc2c(-c3nc(N[C@H]4CCCNC4)ncc3C(F)(F)F)c[nH]c2c1Br [Example T-102] |
| > 500 nM | > 500 nM | < 50 nM | > 500 nM | COC(=O)Nc1ccc2c(-c3nc(N[C@H]4CCC(C)(C)NC4)ncc3C(F)(F)F)c[nH]c2c1C1CC1(F)F (stereo partly drawn) [Example T-105] |
| > 500 nM | > 500 nM | < 50 nM | > 500 nM | COC(=O)Nc1ccc2c(-c3nc(N[C@H]4CCC(C)(C)NC4)ncc3C(F)(F)F)c[nH]c2c1C1CC(F)(F)C1 [Example T-106] |
| > 500 nM | > 500 nM | < 50 nM | > 500 nM | COC(=O)Nc1ccc2c(-c3nc(N[C@H]4CCC(C)(C)NC4)ncc3C(F)(F)F)c[nH]c2c1C(F)F [Example T-107] |
| > 500 nM | > 500 nM | < 50 nM | > 500 nM | COC(=O)Nc1ccc2c(-c3nc(N[C@H]4CCC(C)(C)NC4)ncc3C(F)(F)F)c[nH]c2c1OC(F)F [Example T-108] |
| > 500 nM | > 500 nM | < 50 nM | > 500 nM | COC(=O)Nc1ccc2c(-c3nc(N[C@H]4CCC(C)(C)NC4)ncc3C(F)(F)F)c[nH]c2c1OC(F)(F)F [Example T-109] |
| > 500 nM | > 500 nM | < 50 nM | > 500 nM | CCOC(=O)Nc1ccc2c(-c3nc(N[C@H]4CCCNC4)ncc3C(F)(F)F)c[nH]c2c1C1CC1 [Example T-127] |
| > 500 nM | > 500 nM | 50 to 500 nM | > 500 nM | COC(=O)Nc1ccc2c(-c3nc(N[C@H]4CCC(C)NC4)ncc3C(F)(F)F)c[nH]c2c1C1CC1 (stereo partly drawn) [Example T-129] |
| > 500 nM | > 500 nM | 50 to 500 nM | > 500 nM | COC(=O)Nc1ccc2c(-c3nc(N[C@H]4CC[C@@H](C)NC4)ncc3C(F)(F)F)c[nH]c2c1C1CC1 [Example T-130] |
| > 500 nM | > 500 nM | 50 to 500 nM | > 500 nM | COC(=O)Nc1ccc2c(-c3nc(N[C@H]4CC[C@H](C)NC4)ncc3C(F)(F)F)c[nH]c2c1C1CC1 [Example T-131] |
| > 500 nM | > 500 nM | < 50 nM | > 500 nM | COC(=O)Nc1ccc2c(-c3nc(N[C@H]4CCC(C)(C)NC4)ncc3C(F)(F)F)c[nH]c2c1C(C)=O [Example T-134] |
| > 500 nM | > 500 nM | < 50 nM | > 500 nM | COC(=O)Nc1ccc2c(-c3nc(N[C@H]4CCC(C)(C)NC4)ncc3C(F)(F)F)c[nH]c2c1C(C)(F)F [Example T-136] |

| IC50 (CDK9/Cyclin Tl) | IC50 (CDK2/Cyclin El) | IC50 [1] | IC50 [2] | Compound |
| --- | --- | --- | --- | --- |
| > 500 nM | > 500 nM | < 50 nM | > 500 nM | COC(=O)Nc1ccc2c(-c3nc(N[C@H]4CCC5(CC5)NC4)ncc3C(F)(F)F)c[nH]c2c1C(C)(F)F [Example T-137] |
| > 500 nM | > 500 nM | < 50 nM | > 500 nM | CCOc1c(NC(=O)OC)ccc2c(-c3nc(N[C@H]4CCCNC4)ncc3C(F)(F)F)c[nH]c12 [Example T-138] |
| > 500 nM | > 500 nM | < 50 nM | > 500 nM | COC(=O)Nc1ccc2c(-c3nc(N[C@H]4CCCNC4)ncc3C(F)(F)F)c[nH]c2c1OCC(F)(F)F [Example T-139] |
| > 500 nM | > 500 nM | 50 to 500 nM | > 500 nM | COC(=O)Nc1ccc2c(-c3nc(N[C@H]4CC[C@@H](C)NC4)ncc3C(F)(F)F)c[nH]c2c1OC [Example T-140] |
| > 500 nM | > 500 nM | 50 to 500 nM | > 500 nM | COC(=O)Nc1ccc2c(-c3nc(N[C@H]4CC[C@@H](C)NC4)ncc3C(F)(F)F)c[nH]c2c1Br [Example T-143] |
| > 500 nM | > 500 nM | 50 to 500 nM | > 500 nM | COC(=O)Nc1ccc2c(-c3nc(N[C@H]4CC[C@@H](C)NC4)ncc3C(F)(F)F)c[nH]c2c1Cl [Example T-146] |
| > 500 nM | > 500 nM | 50 to 500 nM | > 500 nM | COC(=O)Nc1ccc2c(-c3nc(N[C@H]4CC[C@@H](C)NC4)ncc3C(F)(F)F)c[nH]c2c1C(F)(F)F [Example T-149] |
| > 500 nM | > 500 nM | 50 to 500 nM | > 500 nM | COC(=O)Nc1ccc2c(-c3nc(N[C@H]4CC[C@@H](C)NC4)ncc3C(F)(F)F)c[nH]c2c1OCC(F)(F)F [Example T-151] |
| > 500 nM | > 500 nM | < 50 nM | > 500 nM | CCOC(=O)Nc1ccc2c(-c3nc(N[C@H]4CCC(C)(C)NC4)ncc3C(F)(F)F)c[nH]c2c1C(C)(F)F [Example T-153] |
| > 500 nM | > 500 nM | < 50 nM | > 500 nM | COC(=O)Nc1ccc2c(-c3nc(N[C@H]4CCC5(CC5)NC4)ncc3C(F)(F)F)c[nH]c2c1OC(F)F [Example T-154] |
| > 500 nM | > 500 nM | < 50 nM | > 500 nM | COC(=O)Nc1ccc2c(-c3nc(N[C@H]4CCCNC4)ncc3C(F)(F)F)c[nH]c2c1C(F)F [Example T-155] |
| > 500 nM | > 500 nM | < 50 nM | > 500 nM | CCOc1c(NC(=O)OC)ccc2c(-c3nc(N[C@H]4CCCN(C)C4)ncc3C(F)(F)F)c[nH]c12 [Example T-161] |
| > 500 nM | > 500 nM | < 50 nM | > 500 nM | COC(=O)N(C)c1ccc2c(-c3nc(N[C@H]4CCCNC4)ncc3C(F)(F)F)c[nH]c2c1Cl [Example T-162] |
| > 500 nM | > 500 nM | < 50 nM | > 500 nM | COC(=O)N(C)c1ccc2c(-c3nc(N[C@H]4CCCNC4)ncc3C(F)(F)F)c[nH]c2c1C(F)F [Example T-163] |
| > 500 nM | > 500 nM | < 50 nM | > 500 nM | COC(=O)N(C)c1ccc2c(-c3nc(N[C@H]4CCCNC4)ncc3C(F)(F)F)c[nH]c2c1C(F)(F)F [Example T-164] |
| > 500 nM | > 500 nM | < 50 nM | > 500 nM | COC(=O)N(C)c1ccc2c(-c3nc(N[C@H]4CCCNC4)ncc3C(F)(F)F)c[nH]c2c1OC(F)F [Example T-165] |
| > 500 nM | > 500 nM | < 50 nM | > 500 nM | COC(=O)Nc1ccc2c(-c3nc(N[C@H]4CCCN(C)C4)ncc3C(F)(F)F)c[nH]c2c1Cl [Example T-168] |
| > 500 nM | > 500 nM | < 50 nM | > 500 nM | COC(=O)Nc1ccc2c(-c3nc(N[C@H]4CCCN(C)C4)ncc3C(F)(F)F)c[nH]c2c1C(F)F [Example T-169] |
